#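 These data come from cells grown in 96-well plates and exposed to compound for 48 hours at five concentrations. GI50 marks 50% less growth. TGI: concentration producing complete growth inhibition.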
# Columns and labels:
# Test in all cases: NCI tumour cell line growth inhibition, 48 h
# OVCAR-3 ovarian = tested on: OVCAR-3 ovarian
# SK-OV-3 ovarian = tested on: SK-OV-3 ovarian
# A498 renal = tested on: A498 renal
# DU-145 prostate = tested on: DU-145 prostate
# SN12C renal = tested on: SN12C renal
# SW-620 colon = tested on: SW-620 colon
# HCT-15 colon = tested on: HCT-15 colon
# HS 578T breast = tested on: HS 578T breast
# LOX IMVI melanoma = tested on: LOX IMVI melanoma
# RXF 393 renal = tested on: RXF 393 renal
# MDA-MB-231 breast = tested on: MDA-MB-231 breast
# HCT-116 colon = tested on: HCT-116 colon
# NCI-H23 lung = tested on: NCI-H23 lung
# OVCAR-8 ovarian = tested on: OVCAR-8 ovarian
# HCC-2998 colon = tested on: HCC-2998 colon
# NCI-H522 lung = tested on: NCI-H522 lung
# U251 CNS = tested on: U251 CNS
# MOLT-4 leukemia = tested on: MOLT-4 leukemia
# 786-0 renal = tested on: 786-0 renal
# CCRF-CEM leukemia = tested on: CCRF-CEM leukemia
# NCI-H460 lung = tested on: NCI-H460 lung
# UACC-62 melanoma = tested on: UACC-62 melanoma
# OVCAR-5 ovarian = tested on: OVCAR-5 ovarian
# OVCAR-4 ovarian = tested on: OVCAR-4 ovarian
# BT-549 breast = tested on: BT-549 breast
# RPMI-8226 leukemia = tested on: RPMI-8226 leukemia
# MDA-MB-435 = tested on: MDA-MB-435
# SNB-19 CNS = tested on: SNB-19 CNS
# M14 melanoma = tested on: M14 melanoma
# TK-10 renal = tested on: TK-10 renal
# SK-MEL-5 melanoma = tested on: SK-MEL-5 melanoma
# HOP-92 NSCLC = tested on: HOP-92 NSCLC
# UO-31 renal = tested on: UO-31 renal
# SR leukemia = tested on: SR leukemia
# UACC-257 melanoma = tested on: UACC-257 melanoma
# SNB-75 CNS = tested on: SNB-75 CNS
# KM12 colon = tested on: KM12 colon
# HT29 colon = tested on: HT29 colon
# T-47D breast = tested on: T-47D breast
# K-562 leukemia = tested on: K-562 leukemia
# A549 NSCLC = tested on: A549 NSCLC
# COLO 205 colon = tested on: COLO 205 colon
# SK-MEL-28 melanoma = tested on: SK-MEL-28 melanoma
# SF-268 CNS = tested on: SF-268 CNS
# SK-MEL-2 melanoma = tested on: SK-MEL-2 melanoma
# NCI/ADR-RES ovarian = tested on: NCI/ADR-RES ovarian
# PC-3 prostate = tested on: PC-3 prostate
# IGROV1 ovarian = tested on: IGROV1 ovarian
# HOP-62 NSCLC = tested on: HOP-62 NSCLC
# MALME-3M melanoma = tested on: MALME-3M melanoma
# CAKI-1 renal = tested on: CAKI-1 renal
# NCI-H226 lung = tested on: NCI-H226 lung
# SF-539 CNS = tested on: SF-539 CNS
# ACHN renal = tested on: ACHN renal
# SF-295 CNS = tested on: SF-295 CNS
# MCF7 breast = tested on: MCF7 breast
# HL-60(TB) leukemia = tested on: HL-60(TB) leukemia
smiles,measurement,setting,value
CCN(CC)CCC(=O)Nc1cccc2c1C(=O)c1c(c(O)c3ccccc3c1O)C2=O,GI50,OVCAR-3 ovarian,15 µM
same,TGI,OVCAR-3 ovarian,52.2 µM
same,GI50,SK-OV-3 ovarian,85.3 µM
same,TGI,SK-OV-3 ovarian,> 100 µM
same,GI50,A498 renal,17.7 µM
same,TGI,A498 renal,47.6 µM
same,GI50,DU-145 prostate,15.5 µM
same,TGI,DU-145 prostate,61.2 µM
same,GI50,SN12C renal,21.5 µM
same,TGI,SN12C renal,> 100 µM
same,GI50,SW-620 colon,6.93 µM
same,TGI,SW-620 colon,23 µM
same,GI50,HCT-15 colon,0.934 µM
same,TGI,HCT-15 colon,> 100 µM
same,GI50,HS 578T breast,16.2 µM
same,TGI,HS 578T breast,> 100 µM
same,GI50,LOX IMVI melanoma,5.77 µM
same,TGI,LOX IMVI melanoma,23.7 µM
same,GI50,RXF 393 renal,4.16 µM
same,TGI,RXF 393 renal,23.8 µM
same,GI50,MDA-MB-231 breast,9.64 µM
same,TGI,MDA-MB-231 breast,26.1 µM
same,GI50,HCT-116 colon,8.8 µM
same,TGI,HCT-116 colon,> 100 µM
same,GI50,NCI-H23 lung,21.9 µM
same,TGI,NCI-H23 lung,> 100 µM
same,GI50,OVCAR-8 ovarian,10.5 µM
same,TGI,OVCAR-8 ovarian,26.9 µM
same,GI50,HCC-2998 colon,> 100 µM
same,TGI,HCC-2998 colon,> 100 µM
same,GI50,NCI-H522 lung,80.3 µM
same,TGI,NCI-H522 lung,> 100 µM
same,GI50,U251 CNS,10.2 µM
same,TGI,U251 CNS,22.7 µM
same,GI50,MOLT-4 leukemia,8.27 µM
same,TGI,MOLT-4 leukemia,72.5 µM
same,GI50,786-0 renal,2.08 µM
same,TGI,786-0 renal,4.39 µM
same,GI50,CCRF-CEM leukemia,1.34 µM
same,TGI,CCRF-CEM leukemia,4.71 µM
same,GI50,NCI-H460 lung,13.3 µM
same,TGI,NCI-H460 lung,81.3 µM
same,GI50,UACC-62 melanoma,> 100 µM
same,TGI,UACC-62 melanoma,> 100 µM
same,GI50,OVCAR-5 ovarian,14.6 µM
same,TGI,OVCAR-5 ovarian,30 µM
same,GI50,OVCAR-4 ovarian,4.05 µM
same,TGI,OVCAR-4 ovarian,23.1 µM
same,GI50,BT-549 breast,19.5 µM
same,TGI,BT-549 breast,52.3 µM
same,GI50,RPMI-8226 leukemia,14.2 µM
same,TGI,RPMI-8226 leukemia,43.1 µM
same,GI50,MDA-MB-435,31 µM
same,TGI,MDA-MB-435,> 100 µM
same,GI50,SNB-19 CNS,16.8 µM
same,TGI,SNB-19 CNS,44.8 µM
same,GI50,M14 melanoma,35.4 µM
same,TGI,M14 melanoma,> 100 µM
same,GI50,TK-10 renal,20.9 µM
same,TGI,TK-10 renal,40.9 µM
same,GI50,SK-MEL-5 melanoma,49.7 µM
same,TGI,SK-MEL-5 melanoma,> 100 µM
same,GI50,HOP-92 NSCLC,0.237 µM
same,TGI,HOP-92 NSCLC,8.56 µM
same,GI50,UO-31 renal,1.12 µM
same,TGI,UO-31 renal,3.31 µM
same,GI50,SR leukemia,0.878 µM
same,TGI,SR leukemia,52.4 µM
same,GI50,UACC-257 melanoma,41.6 µM
same,TGI,UACC-257 melanoma,> 100 µM
same,GI50,SNB-75 CNS,2.11 µM
same,TGI,SNB-75 CNS,10.8 µM
same,GI50,KM12 colon,21.5 µM
same,TGI,KM12 colon,> 100 µM
same,GI50,HT29 colon,19.3 µM
same,TGI,HT29 colon,> 100 µM
same,GI50,T-47D breast,> 100 µM
same,TGI,T-47D breast,> 100 µM
same,GI50,K-562 leukemia,2.67 µM
same,TGI,K-562 leukemia,13.8 µM
same,GI50,A549 NSCLC,17.7 µM
same,TGI,A549 NSCLC,57 µM
same,GI50,COLO 205 colon,20.7 µM
same,TGI,COLO 205 colon,> 100 µM
same,GI50,SK-MEL-28 melanoma,3.65 µM
same,TGI,SK-MEL-28 melanoma,14.4 µM
same,GI50,SF-268 CNS,12.7 µM
same,TGI,SF-268 CNS,36.5 µM
same,GI50,SK-MEL-2 melanoma,> 100 µM
same,TGI,SK-MEL-2 melanoma,> 100 µM
same,GI50,NCI/ADR-RES ovarian,3.94 µM
same,TGI,NCI/ADR-RES ovarian,40.4 µM
same,GI50,PC-3 prostate,4.6 µM
same,TGI,PC-3 prostate,21.7 µM
same,GI50,IGROV1 ovarian,18.9 µM
same,TGI,IGROV1 ovarian,96.8 µM
same,GI50,HOP-62 NSCLC,10.4 µM
same,TGI,HOP-62 NSCLC,39.1 µM
same,GI50,MALME-3M melanoma,26.9 µM
same,TGI,MALME-3M melanoma,88.7 µM
same,GI50,CAKI-1 renal,> 100 µM
same,TGI,CAKI-1 renal,> 100 µM
same,GI50,NCI-H226 lung,17.1 µM
same,TGI,NCI-H226 lung,> 100 µM
same,GI50,SF-539 CNS,3.38 µM
same,TGI,SF-539 CNS,13.8 µM
same,GI50,ACHN renal,4.63 µM
same,TGI,ACHN renal,38.5 µM
same,GI50,SF-295 CNS,12.8 µM
same,TGI,SF-295 CNS,> 100 µM
same,GI50,MCF7 breast,6.77 µM
same,TGI,MCF7 breast,22.9 µM
same,GI50,HL-60(TB) leukemia,> 100 µM
same,TGI,HL-60(TB) leukemia,> 100 µM
